In patent US20100099561A1, “HETEROBICYCLIC ALKYLTHIO-BRIDGED ISOXAZOLINES” (E.I. DU PONT DE NEMOURS AND COMPANY, priority 2008, published 2010):

How the values were obtained:
Assay type in all cases: in vivo
[1] = test system: barnyardgrass (Echinochloa crus-galli); assay: Test A preemergence, barnyardgrass; conditions: 0 to 100 scale (0 no effect, 100 complete control)
Outline: (§1)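 In a greenhouse, loam–sand potted species were treated with surfactant-formulated compound, preemergence via directed soil spray and postemergence at 2–10 cm height, one- to two-leaf stage. Response assessed visually at about ten days; 100 means complete control.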

[2] = test system: large crabgrass (Digitaria sanguinalis); assay: Test A preemergence, large crabgrass; conditions: 0 to 100 scale (0 no effect, 100 complete control)
Outline: as §1

[3] = test system: giant foxtail (Setaria faberi); assay: Test A preemergence, giant foxtail; conditions: 0 to 100 scale (0 no effect, 100 complete control)
Outline: as §1

[4] = test system: morningglory (Ipomoea spp.); assay: Test A preemergence, morningglory; conditions: 0 to 100 scale (0 no effect, 100 complete control)
Outline: as §1

[5] = test system: pigweed (Amaranthus retroflexus); assay: Test A preemergence, pigweed; conditions: 0 to 100 scale (0 no effect, 100 complete control)
Outline: as §1

[6] = test system: velvetleaf (Abutilon theophrasti); assay: Test A preemergence, velvetleaf; conditions: 0 to 100 scale (0 no effect, 100 complete control)
Outline: as §1

[7] = test system: wheat (Triticum aestivum); assay: Test A preemergence, wheat; conditions: 0 to 100 scale (0 no effect, 100 complete control)
Outline: as §1

corn (Zea mays) [8] = assay: Test A preemergence, corn; conditions: 0 to 100 scale (0 no effect, 100 complete control)
Outline: as §1

[9] = test system: barnyardgrass (Echinochloa crus-galli); assay: Test A postemergence, barnyardgrass; conditions: 0 to 100 scale (0 no effect, 100 complete control)
Outline: as §1

[10] = test system: large crabgrass (Digitaria sanguinalis); assay: Test A postemergence, large crabgrass; conditions: 0 to 100 scale (0 no effect, 100 complete control)
Outline: as §1

[11] = test system: giant foxtail (Setaria faberi); assay: Test A postemergence, giant foxtail; conditions: 0 to 100 scale (0 no effect, 100 complete control)
Outline: as §1

[12] = test system: morningglory (Ipomoea spp.); assay: Test A postemergence, morningglory; conditions: 0 to 100 scale (0 no effect, 100 complete control)
Outline: as §1

[13] = test system: pigweed (Amaranthus retroflexus); assay: Test A postemergence, pigweed; conditions: 0 to 100 scale (0 no effect, 100 complete control)
Outline: as §1

[14] = test system: velvetleaf (Abutilon theophrasti); assay: Test A postemergence, velvetleaf; conditions: 0 to 100 scale (0 no effect, 100 complete control)
Outline: as §1

[15] = test system: wheat (Triticum aestivum); assay: Test A postemergence, wheat; conditions: 0 to 100 scale (0 no effect, 100 complete control)
Outline: as §1

corn (Zea mays) [16] = assay: Test A postemergence, corn; conditions: 0 to 100 scale (0 no effect, 100 complete control)
Outline: as §1

rice (Oryza sativa) = assay: Test B flooded paddy test, rice; conditions: Flood, scale 0 to 100
Outline: (§2)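 Compounds were added directly to paddy water over 2-leaf-stage plants in pots flooded 3 cm above soil, water depth maintained. Visual injury scored against controls after 13 to 15 days in greenhouse, 0 (none) to 100 (complete control); dash indicates no result.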

[17] = test system: umbrella sedge (Cyperus difformis); assay: Test B flooded paddy test, umbrella sedge; conditions: Flood, scale 0 to 100
Outline: as §2

[18] = test system: ducksalad (Heteranthera limosa); assay: Test B flooded paddy test, ducksalad; conditions: Flood, scale 0 to 100
Outline: as §2

[19] = test system: barnyardgrass (Echinochloa crus-galli); assay: Test B flooded paddy test, barnyardgrass; conditions: Flood
Outline: as §2

[20] = 250 g ai/ha, scale 0 to 100 (0 no effect, 100 complete control)

## Cn1c(=O)c(C[S+]([O-])C2=NOC(C)(C)C2)nc2ccccc21 (stereo not shown) [Compound 24]
[1]; 125 g ai/ha
  Plant response rating, Barnyardgrass: 0
[1]; 500 g ai/ha
  Plant response rating, Barnyardgrass: 0
[2]; 125 g ai/ha
  Plant response rating, Crabgrass, Large: 0
[2]; 500 g ai/ha
  Plant response rating, Crabgrass, Large: 0
[3]; 125 g ai/ha
  Plant response rating, Foxtail, Giant: 0
[3]; 500 g ai/ha
  Plant response rating, Foxtail, Giant: 0
[4]; 125 g ai/ha
  Plant response rating, Morningglory: 0
[4]; 500 g ai/ha
  Plant response rating, Morningglory: 0
[5]; 125 g ai/ha
  Plant response rating, Pigweed: 0
[5]; 500 g ai/ha
  Plant response rating, Pigweed: 0
[6]; 125 g ai/ha
  Plant response rating, Velvetleaf: 0
[6]; 500 g ai/ha
  Plant response rating, Velvetleaf: 0
[7]; 125 g ai/ha
  Plant response rating, Wheat: 0
[7]; 500 g ai/ha
  Plant response rating, Wheat: 0
Corn (Zea mays) [8]; 125 g ai/ha
  Plant response rating, Corn: 0
Corn (Zea mays) [8]; 500 g ai/ha
  Plant response rating, Corn: 0
[9]; 125 g ai/ha
  Plant response rating, Barnyardgrass: 0
[9]; 500 g ai/ha
  Plant response rating, Barnyardgrass: 0
[10]; 125 g ai/ha
  Plant response rating, Crabgrass, Large: 0
[10]; 500 g ai/ha
  Plant response rating, Crabgrass, Large: 0
[11]; 125 g ai/ha
  Plant response rating, Foxtail, Giant: 0
[11]; 500 g ai/ha
  Plant response rating, Foxtail, Giant: 0
[12]; 125 g ai/ha
  Plant response rating, Morningglory: 0
[12]; 500 g ai/ha
  Plant response rating, Morningglory: 0
[13]; 125 g ai/ha
  Plant response rating, Pigweed: 0
[13]; 500 g ai/ha
  Plant response rating, Pigweed: 0
[14]; 125 g ai/ha
  Plant response rating, Velvetleaf: 0
[14]; 500 g ai/ha
  Plant response rating, Velvetleaf: 0
[15]; 125 g ai/ha
  Plant response rating, Wheat: 0
[15]; 500 g ai/ha
  Plant response rating, Wheat: 0
Corn (Zea mays) [16]; 125 g ai/ha
  Plant response rating, Corn: 0
Corn (Zea mays) [16]; 500 g ai/ha
  Plant response rating, Corn: 0
Rice (Oryza sativa); 62 g ai/ha
  Plant response rating, Rice: 30
Rice (Oryza sativa); 250 g ai/ha
  Plant response rating, Rice: 30
[17]; 62 g ai/ha
  Plant response rating, Sedge, Umbrella: 20
[17]; 250 g ai/ha
  Plant response rating, Sedge, Umbrella: 30
[18]; 62 g ai/ha
  Plant response rating, Ducksalad: 0
[18]; 250 g ai/ha
  Plant response rating, Ducksalad: 30
[19]; 62 g ai/ha, scale 0 to 100
  Plant response rating, Barnyardgrass: 0
[19]; [20]
  Plant response rating, Barnyardgrass: 0

## CC1(C)CC([S+]([O-])Cc2c(C(F)(F)C(F)(F)F)nc3n(c2=O)CCC3)=NO1 (stereo not shown) [Compound 27]
[1]; 125 g ai/ha
  Plant response rating, Barnyardgrass: 50
[1]; 500 g ai/ha
  Plant response rating, Barnyardgrass: 90
[2]; 125 g ai/ha
  Plant response rating, Crabgrass, Large: 70
[2]; 500 g ai/ha
  Plant response rating, Crabgrass, Large: 90
[3]; 125 g ai/ha
  Plant response rating, Foxtail, Giant: 60
[3]; 500 g ai/ha
  Plant response rating, Foxtail, Giant: 90
[4]; 125 g ai/ha
  Plant response rating, Morningglory: 0
[4]; 500 g ai/ha
  Plant response rating, Morningglory: 0
[5]; 125 g ai/ha
  Plant response rating, Pigweed: 0
[5]; 500 g ai/ha
  Plant response rating, Pigweed: 0
[6]; 125 g ai/ha
  Plant response rating, Velvetleaf: 0
[6]; 500 g ai/ha
  Plant response rating, Velvetleaf: 60
[7]; 125 g ai/ha
  Plant response rating, Wheat: 0
[7]; 500 g ai/ha
  Plant response rating, Wheat: 50
Corn (Zea mays) [8]; 125 g ai/ha
  Plant response rating, Corn: 0
Corn (Zea mays) [8]; 500 g ai/ha
  Plant response rating, Corn: 0
[9]; 125 g ai/ha
  Plant response rating, Barnyardgrass: 40
[9]; 500 g ai/ha
  Plant response rating, Barnyardgrass: 70
[10]; 125 g ai/ha
  Plant response rating, Crabgrass, Large: 40
[10]; 500 g ai/ha
  Plant response rating, Crabgrass, Large: 80
[11]; 125 g ai/ha
  Plant response rating, Foxtail, Giant: 40
[11]; 500 g ai/ha
  Plant response rating, Foxtail, Giant: 70
[12]; 125 g ai/ha
  Plant response rating, Morningglory: 0
[12]; 500 g ai/ha
  Plant response rating, Morningglory: 40
[13]; 125 g ai/ha
  Plant response rating, Pigweed: 0
[13]; 500 g ai/ha
  Plant response rating, Pigweed: 30
[14]; 125 g ai/ha
  Plant response rating, Velvetleaf: 0
[14]; 500 g ai/ha
  Plant response rating, Velvetleaf: 40
[15]; 125 g ai/ha
  Plant response rating, Wheat: 0
[15]; 500 g ai/ha
  Plant response rating, Wheat: 50
Corn (Zea mays) [16]; 125 g ai/ha
  Plant response rating, Corn: 0
Corn (Zea mays) [16]; 500 g ai/ha
  Plant response rating, Corn: 0
Rice (Oryza sativa); 31 g ai/ha
  Plant response rating, Rice: 0
Rice (Oryza sativa); 62 g ai/ha
  Plant response rating, Rice: 0
Rice (Oryza sativa); 125 g ai/ha
  Plant response rating, Rice: 0
Rice (Oryza sativa); 250 g ai/ha
  Plant response rating, Rice: 0
[17]; 31 g ai/ha
  Plant response rating, Sedge, Umbrella: 0
[17]; 62 g ai/ha
  Plant response rating, Sedge, Umbrella: 0
[17]; 125 g ai/ha
  Plant response rating, Sedge, Umbrella: 0
[17]; 250 g ai/ha
  Plant response rating, Sedge, Umbrella: 0
[18]; 31 g ai/ha
  Plant response rating, Ducksalad: 0
[18]; 62 g ai/ha
  Plant response rating, Ducksalad: 0
[18]; 125 g ai/ha
  Plant response rating, Ducksalad: 0
[18]; 250 g ai/ha
  Plant response rating, Ducksalad: 0
[19]; 31 g ai/ha, scale 0 to 100
  Plant response rating, Barnyardgrass: 0
[19]; 62 g ai/ha, scale 0 to 100
  Plant response rating, Barnyardgrass: 0
[19]; 125 g ai/ha, scale 0 to 100
  Plant response rating, Barnyardgrass: 0
[19]; [20]
  Plant response rating, Barnyardgrass: 0

## CCn1c(=O)c(CS(=O)(=O)C2=NOC(C)(C)C2)nc2ccccc21 [Compound 28]
[1]; 125 g ai/ha
  Plant response rating, Barnyardgrass: 0
[1]; 500 g ai/ha
  Plant response rating, Barnyardgrass: 10
[2]; 125 g ai/ha
  Plant response rating, Crabgrass, Large: 40
[2]; 500 g ai/ha
  Plant response rating, Crabgrass, Large: 50
[3]; 125 g ai/ha
  Plant response rating, Foxtail, Giant: 0
[3]; 500 g ai/ha
  Plant response rating, Foxtail, Giant: 20
[4]; 125 g ai/ha
  Plant response rating, Morningglory: 0
[4]; 500 g ai/ha
  Plant response rating, Morningglory: 0
[5]; 125 g ai/ha
  Plant response rating, Pigweed: 0
[5]; 500 g ai/ha
  Plant response rating, Pigweed: 0
[6]; 125 g ai/ha
  Plant response rating, Velvetleaf: 0
[6]; 500 g ai/ha
  Plant response rating, Velvetleaf: 0
[7]; 125 g ai/ha
  Plant response rating, Wheat: 0
[7]; 500 g ai/ha
  Plant response rating, Wheat: 0
Corn (Zea mays) [8]; 125 g ai/ha
  Plant response rating, Corn: 0
Corn (Zea mays) [8]; 500 g ai/ha
  Plant response rating, Corn: 0
[9]; 125 g ai/ha
  Plant response rating, Barnyardgrass: 30
[9]; 500 g ai/ha
  Plant response rating, Barnyardgrass: 40
[10]; 125 g ai/ha
  Plant response rating, Crabgrass, Large: 0
[10]; 500 g ai/ha
  Plant response rating, Crabgrass, Large: 50
[11]; 125 g ai/ha
  Plant response rating, Foxtail, Giant: 0
[11]; 500 g ai/ha
  Plant response rating, Foxtail, Giant: 0
[12]; 125 g ai/ha
  Plant response rating, Morningglory: 0
[12]; 500 g ai/ha
  Plant response rating, Morningglory: 0
[13]; 125 g ai/ha
  Plant response rating, Pigweed: 0
[13]; 500 g ai/ha
  Plant response rating, Pigweed: 0
[14]; 125 g ai/ha
  Plant response rating, Velvetleaf: 0
[14]; 500 g ai/ha
  Plant response rating, Velvetleaf: 0
[15]; 125 g ai/ha
  Plant response rating, Wheat: 0
[15]; 500 g ai/ha
  Plant response rating, Wheat: 0
Corn (Zea mays) [16]; 125 g ai/ha
  Plant response rating, Corn: 0
Corn (Zea mays) [16]; 500 g ai/ha
  Plant response rating, Corn: 0
Rice (Oryza sativa); 31 g ai/ha
  Plant response rating, Rice: 0
Rice (Oryza sativa); 62 g ai/ha
  Plant response rating, Rice: 0
Rice (Oryza sativa); 125 g ai/ha
  Plant response rating, Rice: 0
Rice (Oryza sativa); 250 g ai/ha
  Plant response rating, Rice: 0
[17]; 31 g ai/ha
  Plant response rating, Sedge, Umbrella: 0
[17]; 62 g ai/ha
  Plant response rating, Sedge, Umbrella: 0
[17]; 125 g ai/ha
  Plant response rating, Sedge, Umbrella: 0
[17]; 250 g ai/ha
  Plant response rating, Sedge, Umbrella: 0
[18]; 31 g ai/ha
  Plant response rating, Ducksalad: 0
[18]; 62 g ai/ha
  Plant response rating, Ducksalad: 0
[18]; 125 g ai/ha
  Plant response rating, Ducksalad: 0
[18]; 250 g ai/ha
  Plant response rating, Ducksalad: 0
[19]; 31 g ai/ha, scale 0 to 100
  Plant response rating, Barnyardgrass: 0
[19]; 62 g ai/ha, scale 0 to 100
  Plant response rating, Barnyardgrass: 0
[19]; 125 g ai/ha, scale 0 to 100
  Plant response rating, Barnyardgrass: 0
[19]; [20]
  Plant response rating, Barnyardgrass: 0
